Like-named read-outs stand apart in the source and are kept apart here. Each block holds one molecule with its values, some of them ahead of it.
Key:
[1] = CD, PBS pH 7.4, 10 μM individual peptide; ref 5 (Edgell et al., 2020); cited from earlier work
Experimental: page 28: Table S4. Biophysical parameters for switchable peptides and complexes. Peptide(s) Helicity at 5 °C (%)a TM (°C) CC-Tet-A 37b < 20b CC-Tet-B 37b < 20b CC-Tet-A-S14 23 < 20 CC-Tet-A-S7 29 < 20 CC-Tet-A-S21 25 < 20 CC-Tet-B-RRXS14 26 < 20 CC-Tet-A + B 87b > 95b CC-Tet-A-S14 + B-RRXS14 67 62 CC-Tet-A-S7 + B-RRXS14 70 66 CC-Tet-A-S21 + B-RRXS14 81 72 apCC-Tet-A-S10 48 < 20 apCC-Tet-A-S17 42 < 20 apCC-Tet-B-S20 40 < 20 apCC-Tet-B-RRXS13 39 < 20 apCC-Tet-B-RRXS20 38 < 20 apCC-Tet-A-S10 + B-S20 93 > 95 apCC-Tet-A-S10 + B-RRXS20 80 75 apCC-Tet-A-S17 + B-RRXS13 84 72 apCC-Tet-A-S17 + B-RRXS20 ...

[2] = even at 100 μM; cited from earlier work
[3] = CD spectroscopy, helicity at 5 °C; format: physicochemical; details: PBS pH 7.4, 10 μM individual peptide
Experimental: (§1) CD spectra and thermal denaturation curves were obtained using a JASCO J810 or 815 spectropolarimeter fitted with a Peltier temperature controller. CD spectra (260 to 190 nm, with 1 nm step size, 100 nm.min^–1 scanning speed, 1 nm bandwidth and 1 s response time) were measured in PBS (137 mM NaCl, 2.7 mM KCl, and 10 mM phosphate buffer, pH 7.4) at 5 °C in quartz cuvettes. Thermal denaturation experiments were performed using 10 μM individual peptide concentration in a 5 mm cuvette. For thermal denaturation experiments, the CD signal at 222 nm was recorded at 1 °C intervals upon heating from 5 to 95 °C at a rate of 40 or 60 °C/h (1 nm interval, 1 nm bandwidth, 16 s response time). Data was buffer subtracted, and then normalized for peptide concentration, number of amide bonds present, and cuvette path length to give the mean residue ellipticity (MRE). Midpoints of thermal denaturation were calculated using the second derivative of the corresponding thermal denaturation curve. Fraction helix (%) was calculated using the following equation (where MREcoil = 640 – 45T; T, temperature (°C); n, number of amide bonds in sample including C-terminal amide):[68] [drawing 2]

[4] = Thermal denaturation monitored by CD (MRE222), midpoint TM; format: physicochemical; details: for TM (°C), midpoint of thermal unfolding: CD at 222 nm, 5 to 95 °C, PBS pH 7.4, 10 μM individual peptide; for folding and thermal stability by CD, in words: PBS pH 7.4, 10 µM individual peptide
Experimental: as §1

[5] = target: CC-Tet-A-S14; experiment: Isothermal titration calorimetry (ITC) of CC-Tet-B-RRXS14 into CC-Tet-A-S14; format: binding; details: 200 μM CC-Tet-B-RRXS14 into 20 μM CC-Tet-A-S14, PBS, 37 °C, heterodimer model, global fit n = 3, read-out: observable KD (concentration at which the complex is half folded)
Experimental: To model the disassembly of the A2B2 complex into the unfolded peptides A and B, we needed to determine the dissociation constant (KD) and use this to estimate the forward and reverse rate constants, koff and kon (Figure 5). To do this, we used isothermal titration calorimetry (ITC), titrating CC-Tet-B-RRXS14 into 20 μM CC-Tet-A-S14 at 37 °C, and the heat released upon binding was measured. […] We contend that this sub-μM KD—which is consistent with our CD measurements (Figure S30)—is close to ideal for use in synthetic biology systems in cells and in vitro, as functioning at μM concentrations leaves the system poised in a folded state, but close to unfolding, rendering it receptive to phosphorylation-induced switching.
Peptides were dissolved in PBS buffer to a concentration around 1 mM and a volume of 1 mL. Samples were then individually dialyzed into 1.5 L of PBS with gentle stirring overnight using a Mini Dialysis Kit (Cyvita) with a 1 kDa membrane cut off. Sample concentration was subsequently remeasured to account for changes in volume because of diffusion during dialysis. […]
To analyze the data, NITPIC, SEDPHAT, and GUSSI were used.[72]−[74] […] Following this, experiments were analyzed using SEDPHAT, which allowed correction of concentration deviations and outlier injection exclusion, after which data was fitted to a heterodimer model (as no heterotetramer model was available). […]

[6] = Sedimentation-velocity analytical ultracentrifugation; format: physicochemical; details: PBS pH 7.4, 20 °C, 70 μM of each peptide for mixtures
Experimental: Sedimentation-velocity (SV) experiments were conducted at 20 °C in a Beckman-Optima XL-I analytical ultracentrifuge using an An-60 Ti rotor. Samples were prepared in PBS at 140 μM total peptide concentration. Samples were centrifuged at a speed of 50,000 or 60,000 rpm. The partial specific volume (v̅) for each peptide was calculated and data sets were fitted to a single, ideal species model using SEDFIT. Sedimentation-equilibrium (SE) experiments were conducted at 20 °C in a Beckman-Optima XL-I analytical ultracentrifuge using an An-50 Ti rotor. Samples were prepared in PBS at 70 μM total peptide concentration. Samples were centrifuged at a range of speeds from 18,000–39,000 rpm with defined intervals, and 8 h between subsequent scans. Data sets were analyzed using SEDPHAT.

[7] = target: T1, apCC-Tet-A-S17 (N-terminal acetyl; C-terminal amide); experiment: circular dichroism (Job plot); fraction helix at different ratios of the two peptides, total peptide concentration 20 μM, PBS pH 7.4; details: both partners purified
T1 chain: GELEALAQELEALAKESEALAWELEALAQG

[8] = target: T2, CC-Tet-A-S14 (N-terminal acetyl; C-terminal amide); experiment: ITC; 200 μM CC-Tet-B-RRXS14 injected into 20 μM CC-Tet-A-S14, 37 °C, PBS; fitted to a heterodimer model, global fit of three experiments; observable (apparent) KD; details: both partners purified
T2 chain: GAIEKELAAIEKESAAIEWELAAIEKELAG

[9] = target: T2, CC-Tet-A-S14; experiment: kinetic model fitted to the CD phosphorylation time course; ordinary differential equations (Berkeley Madonna); koff and kon optimised with K_D(T) held at 3.18 × 10^-19 M^3; tetramer A2B2 to unfolded peptides A and B; 37 °C, 10 μM of each peptide; details: both partners purified

Molecule: Ac-G AIEK ELAAIEK ELAAIEW ELAAIEK ELA G-NH2 [CC-Tet-A, acidic peptide of the previously published parallel heterotetramer CC-Tet-A2B2]
TM (°C), midpoint of thermal unfolding [1]: < 20 °C
self-association of individual peptide [2]: do not self-associate

Molecule: Ac-G AIEK ELAAIEK ELAAIEW ESAAIEK ELA G-NH2 [CC-Tet-A-S21, CC-Tet-A variant with Ser at position 21]
Helicity at 5 °C (%) [3]: 25%
TM (°C), midpoint of thermal unfolding [4]: < 20 °C

Molecule: Ac-G AIEK ESAAIEK ELAAIEW ELAAIEK ELA G-NH2 [CC-Tet-A-S7, CC-Tet-A variant with Ser at position 7]
Helicity at 5 °C (%) [3]: 29%
TM (°C), midpoint of thermal unfolding [4]: < 20 °C

Molecule: Ac-G AIKQ KLAAIKQ KLAAIKW KLAAIKQ KLA G-NH2 [CC-Tet-B, basic peptide of the previously published parallel heterotetramer CC-Tet-A2B2]
TM (°C), midpoint of thermal unfolding [1]: < 20 °C
self-association of individual peptide [2]: do not self-associate

Molecule: Ac-G AIKQ KLAAIRR KSAAIKW KLAAIKQ KLA G-NH2 [CC-Tet-B-RRXS14, basic parallel peptide with PKA site R-R-X-S, Ser at position 14]
Helicity at 5 °C (%) [3]: 26%
TM (°C), midpoint of thermal unfolding [4]: < 20 °C
Kd [5]: 542 nM

B1: apCC-Tet-B-S20 (peptide)
chain: Ac-GKLKALAQKLKALAKKLKASAWKLKALAQG-NH2
stoichiometry N [7]: 1

B2: CC-Tet-B-RRXS14 (peptide)
chain: Ac-GAIKQKLAAIRRKSAAIKWKLAAIKQKLAG-NH2
Kd [8]: 542 nM
stoichiometry N [8]: ~1
koff [9]: 0.0038 s⁻¹
kon [9]: 229000 M⁻¹ s⁻¹

Continued, values first:

Helicity at 5 °C (%) [3]: 23%
TM (°C), midpoint of thermal unfolding [4]: < 20 °C
Molecule: Ac-G AIEK ELAAIEK ESAAIEW ELAAIEK ELA G-NH2 [CC-Tet-A-S14, CC-Tet-A variant with Ser at position 14]

folding and thermal stability by CD, in words [4]: stably folded
oligomeric state from SV AUC (x monomer mass) [6]: 4.5 x monomer mass
Molecule: Ac-G ELEALAQ ELEALAK ELEALAW ELEALAQ G-NH2 [apCC-Tet-A1, initial acidic antiparallel design]

Helicity at 5 °C (%) [3]: 42%
TM (°C), midpoint of thermal unfolding [4]: < 20 °C
Molecule: Ac-G ELEALAQ ELEALAK ESEALAW ELEALAQ G-NH2 [apCC-Tet-A-S17, acidic antiparallel peptide with Ser at position 17]

Helicity at 5 °C (%) [3]: 48%
TM (°C), midpoint of thermal unfolding [4]: < 20 °C
Molecule: Ac-G ELEALAQ ESEALAK ELEALAW ELEALAQ G-NH2 [apCC-Tet-A-S10, acidic antiparallel peptide with Ser at position 10]

folding and thermal stability by CD, in words [4]: stably folded
oligomeric state from SV AUC (x monomer mass) [6]: 5.2 x monomer mass
Molecule: Ac-G KLKALAQ KLKALAK KLKALAW KLKALAQ G-NH2 [apCC-Tet-B1, initial basic antiparallel design]

Helicity at 5 °C (%) [3]: 40%
TM (°C), midpoint of thermal unfolding [4]: < 20 °C
Molecule: Ac-G KLKALAQ KLKALAK KLKASAW KLKALAQ G-NH2 [apCC-Tet-B-S20, basic antiparallel peptide with Ser at position 20]

Helicity at 5 °C (%) [3]: 38%
TM (°C), midpoint of thermal unfolding [4]: < 20 °C
Molecule: Ac-G KLKALAQ KLKALAK KRRASAW KLKALAQ G-NH2 [apCC-Tet-B-RRXS20, basic antiparallel peptide with PKA site, Ser at position 20]

Helicity at 5 °C (%) [3]: 39%
TM (°C), midpoint of thermal unfolding [4]: < 20 °C
Molecule: Ac-G KLKALAQ KRRASAK KLKALAW KLKALAQ G-NH2 [apCC-Tet-B-RRXS13, basic antiparallel peptide with PKA site, Ser at position 13]

— PMC10127268, “Rational Design of Phosphorylation-Responsive Coiled Coil-Peptide Assemblies” (ACS Synthetic Biology, 2023)
